The values that follow come from patent US9376406B2, “uPAR-uPA interaction inhibitors and methods for treating cancer” (Indiana University Research and Technology Corporation, priority 2011, dated 2016).

One data set concerns the target T1, uPAR (Homo sapiens, UniProt Q03405).
T1 construct: uPAR comprising amino acids 1-277 was expressed in Drosophila S2 cells; made in house; host or cells: Drosophila S2 cells
In words: Fluorescence polarization, direct binding to uPAR. Conditions: excitation 530 nm, emission 600 nm. The method, then: Fluorescence polarization in the presence and absence of protein and were measured using identical conditions as described above.
The mP was evaluated in the a presence and absence of competing 10 μM GFD.
Background: Polarisation of emitted light reports the rotation of a fluorescent probe.

For data set [1], the system named is integrins (phospho p44/42 MAPK, p44/42 MAPK, pSrc Y416, Src, pFAK Y397, FAK). The experiment in a line: Integrin signaling by gel electrophoresis. The data set is classed as cell-based.
Data set [2] is described as follows: in vivo pharmacokinetics in mice. The method, then: in vivo Pharmacokinetics of IPR-803 in mice. Compounds are administered to mice via a single dose of 200 mg/kg by oral gavage using a formulation of saline. Blood ([…]) is taken from the mice at their tails at time intervals of 1, 2, 4, 6, 8 and 10 hours (three time points from each of the 18 mice (21)) post injection. Blood plasma samples are prepared by centrifugation for quantification and HPLC-MS/MS analysis. […] The stability of the compounds in plasma is reflected by the half-life (t1/2). To gain insight into its absorption following oral dosing, intravenous bioavailability of compounds described herein is determined. Compounds are injected intravenously (IV) into the tail vein. Blood plasma samples are prepared from collected blood samples at 5, 10, 20, 45 and 120 minutes (three mice per time point). […] The levels of the compound in tumor tissue remained high even after 10 hours.

A further data set relates to TMD-231 cells. The experiment in a line: xenograft mice model of breast cancer metastasis. In kind it is in vivo. The method, then:
in vivo Efficacy of IPR-803 in xenograft mice model of cancer. Breast Cancer Metastasis. The Example is performed as described in Wang et al. (2011) Virtual Screening Targeting the Urokinase Receptor, Biochemical and Cell-Based Studies, Synthesis, Pharmacokinetic Characterization, and Effect on Breast Tumor Metastasis. J Med Chem In press, the disclosure of which is incorporated herein in its entirety. Briefly, TMD-231 cells are inoculated into the mammary fat pad of female NOD/SCID mice. Dosing is initiated at day 15 post implantation. Animals are randomized and treated with vehicle or with test compound by daily oral gavage at a dose of 200 mg/kg.
While uPAR's effects on growth are known to be minimal, its role in promoting invasion and metastasis is widely established. To assess the effect of IPR-803 on metastasis, control and experimental animals were sacrificed and organs (lungs) were removed and evaluated for the presence of tumors. The number and size of metastasis in two to five fields per sample were calculated. A score of 4+ was given to a sample with highest metastasis index and relative metastasis in other samples are calculated (i.e., 1+, 2+, 3+) by a sample-blinded pathologist. […] For example, 11 out of 13 untreated mice developed severe (score=3) or marked (score=4) metastasis to the lung. This is compared to only 4 in the treated mice. Among the treated mice, 4 developed moderate metastasis, and another four were scored at 1 or lower, showing mild metastasis to the lungs.
IPR-803 was administered at 200 mg/kg p.o. to test animals, and conventional evaluation of cancer progression and survival measurements were made. […] It is observed that there is a greater percentage of mild an moderate outcomes in the treatment group compared to the untreated group showing a majority of severe outcomes. In addition, whole animal toxicity was evaluated by periodic measurement of weight change in test animals.

A short description of data set [3]: cellular studies, cytotoxicity of IPR-803. In kind it is cell-based.
The mark [4] stands for this setting: mouse, plasma, po, 200 mg/kg p.o.

What is called bioavailability is the share of a dose that reaches the circulation, judged against a reference dose that is usually intravenous. The term AUC(0-inf) denotes the area under the concentration-time curve extrapolated to infinity. Low readings indicate less exposure, high ones more exposure. The term AUC(0-t) denotes exposure summed from dosing to a finite time, without extrapolation to infinity. As a reminder, the Tmax is the time from dosing to the highest level. For orientation: half-life means the time needed for the level to fall by half in the phase considered. Low values mean rapid decline, high ones slow decline.

Where two headings read alike, the source gives them in different places.

T1 sequence (Q03405 23-299): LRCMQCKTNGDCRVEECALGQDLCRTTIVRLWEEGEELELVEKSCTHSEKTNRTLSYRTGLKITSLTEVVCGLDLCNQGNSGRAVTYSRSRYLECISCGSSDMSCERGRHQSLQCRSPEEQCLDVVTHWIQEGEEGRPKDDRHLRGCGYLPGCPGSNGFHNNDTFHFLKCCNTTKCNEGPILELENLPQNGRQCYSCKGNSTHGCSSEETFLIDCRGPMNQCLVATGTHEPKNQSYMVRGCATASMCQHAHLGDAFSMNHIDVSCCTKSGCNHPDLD

`O=C(O)c1cccc(Nc2cc(N3CCCCCC3)c3noc4c3c2C(=O)c2ccccc2-4)c1` [IPR-803, 3-((3-(azepan-1-yl)-6-oxo-6H-anthra[1,9-cd]isoxazol-5-yl)amino)benzoic acid]: the “fluorescence polarization (mP) with increasing uPAR concentration” value at uPAR was “showed a dose response with increasing mP”. Further, the “signaling effect on pathways implicated with growth, such as ERK” value in data set [1] is reported as “does not have a signaling affect”. For the same molecule, the Cl/F in data set [2] (200 mg/kg p.o.) is 0.379 L/h. In data set [2] (LC/MS/MS at 1, 2, 4, 6, and 8 hour intervals), the “level in the primary tumor” value is approximately 10 µM. In addition, the “levels of the compound in tumor tissue” value in data set [2] (after 10 hours) is listed as “remained high”. The bioavailability in data set [2] (mouse, plasma, oral, 200 mg/kg, estimated from p.o. and IV data) was approximately 4%. In data set [2] (setting [4]), the AUC(0-inf) stood at 13700 ng·h/mL, the area under the curve AUC(0-t) was determined as 11300 ng·h/mL, the Tmax was 1 h and the half-life was 4.7 h. The Cmax in data set [2] (mouse, plasma, po, 200 mg/kg p.o., read-out: Cmax) came out at 2600 ng/mL. Moreover, the Vd/F in data set [2] (mouse, plasma, po, 200 mg/kg p.o., read-out: Vdss/F) came to 2.23 L. In addition, the Cmax in data set [2] (mouse, plasma, mice, 200 mg/kg oral gavage, saline, read-out: maximum concentration (Cmax) in plasma) was determined as 5 µM. Further, in the data set with TMD-231 cells (200 mg/kg p.o., n=15), the “outcome (cancer progression and survival) compared to vehicle” value was “statistically significant (p<0.013) improvement in outcome”. For the same molecule, in the data set with TMD-231 cells (200 mg/kg p.o., n=15, vs vehicle control), the “weight change (whole animal toxicity)” value is “No significant weight change”. Moreover, in the data set with TMD-231 cells (treated mice), the “number of mice scored at 1 or lower, mild metastasis to the lungs” value is “four”; the “number of mice with moderate metastasis” value is recorded as 4; the “number of mice with severe (score=3) or marked (score=4) metastasis to the lung” value was 4. Also, in the data set on TMD-231 cells (treated mice, 200 mg/kg daily oral gavage, 33 day study), the tumor volume is reported as approximately 693 mm^3. Besides, in the data set with TMD-231 cells (treated vs untreated), the “effects on tumor size” value is on record as approximately 10%. Moreover, the cytotoxicity result in data set [3] was “not cytotoxic”.
